Reference: the Deep4Chem optical property database
“And” between values parts separate entries of the source, which are not always exact repeats. Identical values can stand only once. Blank lines part the entries; values can stand above or below the compound they belong to.

Assay: solvent given as SMILES

absorption maximum (in CN(C)C=O): 579 nm
Structure (SMILES): CCN(CC)c1ccc(/C=C2\CC/C(=C\c3ccc(N(c4ccccc4)c4ccccc4)cc3)C2=C(C#N)C#N)cc1

absorption maximum (in C1CCOC1): 345 nm
Structure (SMILES): CC(C)(C)c1ccc(-c2c(-c3ccc4c5ccccc5n(-c5ccccc5)c4c3)c(C#N)c(-c3ccc4c5ccccc5n(-c5ccccc5)c4c3)c(-c3ccc(C(C)(C)C)cc3)c2-c2ccc(C(C)(C)C)cc2)cc1

absorption maximum (in CC#N): 724 nm
absorption maximum (in CCO): 710 nm
absorption maximum (in CO): 714 nm
absorption maximum (in ClC(Cl)Cl): 730 nm
Structure (SMILES): C[N+]1=C(/C=C/C2=C3Oc4c(cc5c6c4CCCN6CCC5)C(c4ccccc4C(=O)O)=C3CCC2)C(C)(C)c2ccccc21

absorption maximum (in C1CCOC1): 584 nm
absorption maximum (in CCCCCC): 583 nm
absorption maximum (in CO): 583 nm
absorption maximum (in CS(C)=O): 587 nm
absorption maximum (in ClC(Cl)Cl): 584 nm
absorption maximum (in ClCCl): 583 nm
Structure (SMILES): CC1=[N+]2C(=c3c4c5ccccc5cc5cccc(c6cc(C)n(c36)[B-]2(F)F)c54)C=C1

Structure (SMILES): CN(C)c1ccc(C#Cc2ccc(C=O)cc2)cc1
absorption maximum (in C1CCCCC1): 381.5 nm
absorption maximum (in C1CCOC1): 379.51 nm
absorption maximum (in C1COCCO1): 375.01 nm
absorption maximum (in CC1CCCO1): 382 nm
absorption maximum (in CC#N): 375.01 nm
absorption maximum (in CC(C)=O): 388 nm
absorption maximum (in CC(C)CC(C)(C)C): 383.49 nm
absorption maximum (in CC(C)O): 380.5 nm
absorption maximum (in CCCCCCCCCCCCCCCC): 383 nm
absorption maximum (in CCCCCCCCCCCCCCCCCl): 390 nm
absorption maximum (in CCOC(C)=O): 375.01 nm
absorption maximum (in CCOCC): 372.49 nm
absorption maximum (in CN(C)C=O): 379.51 nm
absorption maximum (in CO): 380.5 nm
absorption maximum (in CS(C)=O): 387 nm
absorption maximum (in Cc1ccccc1): 381.5 nm

absorption maximum (in CO): 306 nm
Structure (SMILES): Brc1cnc(-c2ccncc2)s1

absorption maximum (in ClCCl): 499 nm
Structure (SMILES): CCCCNc1ccc2n1[B-](F)(F)[N+]1=CC(/C=C/C(=O)OC(C)(C)C)=CC1=C2c1c(C)cc(C)cc1C

Structure (SMILES): Cc1ccc(N2C(c3ccccc3N)=NC(c3ccccc3)C2c2ccccc2)cc1 (stereo not given)
absorption maximum (in Cc1ccccc1): 282 nm

absorption maximum (in CCO): 602 nm
absorption maximum (in ClC(Cl)Cl): 608 nm
absorption maximum (in O): 602 nm
Structure (SMILES): CCOC(=O)c1ccccc1-c1c2ccc(=[N+](CC)CC)cc-2oc2c1c(=O)oc1cc3c(cc12)CCCN3C

absorption maximum (in C1CCOC1): 440 nm
Structure (SMILES): COc1cc2c(cc1-c1ccc(N(C)C)cc1)Cc1c3c(c4c(c1-2)-c1cc(OC)c(-c2ccc(N(C)C)cc2)cc1C4)C(=O)N(CCC(C)C)C3=O

absorption maximum (in C1CCCCC1): 366 nm
Structure (SMILES): CCCC1(CCC)c2cc(-c3ccc(C(C)(C)C)cc3)ccc2-c2ccc(-c3ccc4c(c3)C(CCC)(CCC)c3cc(-c5ccc6c(c5)C(CCC)(CCC)c5cc(-c7ccc8c(c7)C(CCC)(CCC)c7cc(-c9ccc(C(C)(C)C)cc9)ccc7-8)ccc5-6)ccc3-4)cc21

absorption maximum (in ClCCl): 364 nm
Structure (SMILES): Cc1cc(C)c(C)c(-c2cc(-c3c(C)c(C)cc(C)c3C)c3ccc4c(-c5c(C)c(C)cc(C)c5C)cc(-c5c(C)c(C)cc(C)c5C)c5ccc2c3c54)c1C

absorption maximum (in ClCCl): 312 nm
Structure (SMILES): Cc1cc2cc(C)c3c4ccccc4[nH]c3c2s1

Structure (SMILES): CCC1(CC)c2cc(N(C)C)ccc2-c2ccc(C(F)(F)F)cc21
absorption maximum (in C1CCCCC1): 341 nm
absorption maximum (in CC#N): 302 nm
absorption maximum (in CCO): 342 nm
absorption maximum (in CCOCC): 342 nm
absorption maximum (in CS(C)=O): 350 nm
absorption maximum (in ClCCl): 344 nm
absorption maximum (in c1ccccc1): 346 nm

absorption maximum (in CCO): 388 nm
absorption maximum (in ClC(Cl)Cl): 403 nm
Structure (SMILES): CCOc1ccc2c(-c3nc(-c4cccc(Br)c4)no3)cc(=O)oc2c1

absorption maximum (in ClCCl): 548 nm
Structure (SMILES): CC1=C(c2ccccc2)C(C)=[N+]2C1=C(c1c(-c3ccccn3)nc3ccccn13)c1c(C)c(-c3ccccc3)c(C)n1[B-]2(F)F

absorption maximum (in CC#N): 513 nm
absorption maximum (in CCCCCC): 518 nm
absorption maximum (in CCOC(C)=O): 515 nm
absorption maximum (in CO): 512 nm
absorption maximum (in ClCCl): 518 nm
Structure (SMILES): COC1=[N+]2C(=C(c3ccccc3)c3cc(SC#N)c(OC)n3[B-]2(F)F)C=C1SC#N

absorption maximum (in C1COCCO1): 454 nm
Structure (SMILES): COC(=O)c1ccc(/C=C2\C=C(c3ccc(OC)c(OC)c3)NC2=O)cc1

absorption maximum (in ClC(Cl)Cl): 526 nm
Structure (SMILES): CCCCN1C(=O)c2ccc3c4ccc5c6c(ccc(c7ccc(c2c37)C1=O)c64)C(=O)N(CCCC)C5=O

Structure (SMILES): COc1ccc(C2=C3C(C)=CC(C=Cc4ccc(C(=O)OC5C[C@H]6CCC5(C)C6(C)C)cc4)=[N+]3[B-](F)(F)n3c(C)cc(C)c32)cc1 (stereo not given in full)
absorption maximum (in Cc1ccccc1): 568 nm

absorption maximum (in CS(C)=O): 656 nm
Structure (SMILES): COc1ccc(C2=[N+]3C(=Nc4c(C)cc(-c5ccc(OC)cc5)n4[B-]3(F)F)C(C)=C2)cc1

absorption maximum (in CC#N): 348 nm
absorption maximum (in CCCCCC): 342 nm
Structure (SMILES): Nc1ccc(/C=C/c2ccc3ccccc3c2)cc1

absorption maximum (in CC1CCCCC1): 386 nm
absorption maximum (in CC#N): 386 nm
Structure (SMILES): C(=C\c1c2ccccc2cc2ccccc12)/c1cccc2ccccc12

absorption maximum (in ClCCl): 433 nm
Structure (SMILES): CC(C)(C)c1ccc(N(c2ccc(C(C)(C)C)cc2)c2ccc3c(N(c4ccc(C(C)(C)C)cc4)c4ccc(C(C)(C)C)cc4)cc4c5cc(N(c6ccc(C(C)(C)C)cc6)c6ccc(C(C)(C)C)cc6)ccc5c(N(c5ccc(C(C)(C)C)cc5)c5ccc(C(C)(C)C)cc5)cc4c3c2)cc1

absorption maximum (in C1CCCCC1): 360 nm
Structure (SMILES): C1=Cc2ccc3ccccc3c2NB1c1ccccc1

Structure (SMILES): COc1ccc2c(=O)c3c([nH]c2c1)-c1cc(Cl)ccc1NC3(C)C
absorption maximum (in C1CCOC1): 411 nm
absorption maximum (in CC#N): 421 nm
absorption maximum (in CCCCO): 426 nm
absorption maximum (in CCCO): 426 nm
absorption maximum (in CCO): 426 nm
absorption maximum (in CCOC(C)=O): 417 nm
absorption maximum (in CN(C)C=O): 425 nm
absorption maximum (in CO): 428 nm
absorption maximum (in CS(C)=O): 426 nm
absorption maximum (in Cc1ccccc1): 405 nm
absorption maximum (in ClC(Cl)(Cl)Cl): 419 nm
absorption maximum (in ClCCl): 408 nm
absorption maximum (in O): 405 nm
absorption maximum (in c1ccccc1): 420 nm

absorption maximum (in ClCCl): 366 nm
Structure (SMILES): C(S/C=C/c1ccc(/C=C/SC=C(c2ccccc2)c2ccccc2)cc1)=C(c1ccccc1)c1ccccc1

absorption maximum (in CC#N): 560 nm
Structure (SMILES): CC1=CC(C)=[N+]2C1=C(c1ccccc1)c1c(C)cc(/C=C/c3ccccc3)n1[B-]2(F)F

absorption maximum (in CC#N): 382 nm
absorption maximum (in CCCCCC): 384 nm
absorption maximum (in CO): 368 nm
absorption maximum (in CS(C)=O): 391 nm
absorption maximum (in ClC(Cl)Cl): 373 nm
Structure (SMILES): CCN(CC)c1ccc(/C=N/Nc2ccc(C#N)cc2)c(O)c1

Structure (SMILES): N#Cc1cc(-n2c3ccccc3c3ccccc32)c(-n2c3ccccc3c3ccccc32)cc1C#N
absorption maximum (in C1CCOC1): 368 nm
absorption maximum (in CC#N): 367 nm
absorption maximum (in Cc1ccccc1): 375 nm
absorption maximum (in ClCCl): 364 nm

absorption maximum (in CC#N): 593 nm
absorption maximum (in CO): 591 nm
absorption maximum (in ClCCl): 606 nm
absorption maximum (in O): 587 nm
Structure (SMILES): CN(C)c1ccc2c3c(c(=O)oc2c1)C=c1cc2c(cc1O3)=[N+](CCC(=O)O)CCC2

Structure (SMILES): c1ccc(-c2nn(-c3ccccc3)c3nc4ccc(-n5c6ccccc6c6ccccc65)cc4cc23)cc1
absorption maximum (in C1CCCCC1): 419.11 nm
absorption maximum (in C1CCOC1): 414.94 nm
absorption maximum (in CC#N): 411.02 nm
absorption maximum (in CC(C)=O): 412.03 nm
absorption maximum (in CCCCCl): 415.97 nm
absorption maximum (in CCCCOCCCC): 418.06 nm
absorption maximum (in CN(C)C=O): 414.94 nm

absorption maximum (in C1CCOC1): 425 nm
Structure (SMILES): COc1cc2oc(=O)c3c4ccc(C=O)cc4c4ccc5cccc6c(c1)c2c3c4c56

absorption maximum (in ClCCl): 385 nm
Structure (SMILES): C(=C\c1ncc2ccccc2n1)/c1ccc(N2CCCCC2)cc1

absorption maximum (in C1CCCCC1): 586 nm
absorption maximum (in CCOC(C)=O): 581 nm
absorption maximum (in CO): 579 nm
Structure (SMILES): F[B-]1(F)n2c(cc3c4ccccc4oc32)C(c2ccccc2)=C2C=c3c(oc4ccccc34)=[N+]21

absorption maximum (in CC#N): 459 nm
Structure (SMILES): CCN(CC)c1ccc2cc(/C=C/c3ccc([N+](=O)[O-])cc3)c(=O)oc2c1

Structure (SMILES): CCC(=O)c1ccc2cc(N(C)C)ccc2c1
absorption maximum (in C1CCCCC1): 342 nm and 343 nm
absorption maximum (in C1CCOC1): 346 nm
absorption maximum (in C1COCCO1): 348 nm
absorption maximum (in CC#N): 347 nm and 368 nm
absorption maximum (in CC(C)=O): 350 nm
absorption maximum (in CC(C)O): 367 nm
absorption maximum (in CCC(C)=O): 367 nm
absorption maximum (in CCCCCC): 338 nm
absorption maximum (in CCCCCCC): 343 nm
absorption maximum (in CCCCCCCCO): 360 nm
absorption maximum (in CCN(CC)CC): 343 nm
absorption maximum (in CCO): 362 nm and 369 nm
absorption maximum (in CCOC(C)=O): 352 nm
absorption maximum (in CN(C)C=O): 350 nm
absorption maximum (in CO): 362 nm
absorption maximum (in CS(C)=O): 359 nm and 369 nm
absorption maximum (in Cc1ccccc1): 345 nm and 349 nm
absorption maximum (in ClC(Cl)Cl): 358 nm
absorption maximum (in ClCCl): 355 nm and 358 nm
absorption maximum (in Clc1ccccc1): 254 nm and 354 nm
absorption maximum (in O): 364 nm
absorption maximum (in OCC(O)CO): 370 nm
absorption maximum (in OCCO): 375 nm
absorption maximum (in c1ccccc1): 355 nm

absorption maximum (in C1CCCCC1): 360 nm
absorption maximum (in CC#N): 359 nm
absorption maximum (in CO): 359 nm
absorption maximum (in ClC(Cl)Cl): 362 nm
Structure (SMILES): CC1(C)CC(/N=C/c2ccc3ccc4cccc5ccc2c3c45)CC(C)(C)N1[O]

absorption maximum (in C1CCOC1): 360 nm
absorption maximum (in C1COCCO1): 362 nm
absorption maximum (in CC#N): 354 nm
absorption maximum (in CCCCCO): 370 nm
absorption maximum (in CCCCO): 370 nm
absorption maximum (in CCCO): 368 nm
absorption maximum (in CCO): 369 nm
absorption maximum (in CO): 356 nm
absorption maximum (in COCCOC): 360 nm
absorption maximum (in ClC(Cl)Cl): 362 nm
absorption maximum (in ClCCl): 362 nm
absorption maximum (in OCCO): 356 nm
Structure (SMILES): O=C(O)c1c2ccccc2nc2ccccc12

absorption maximum (in ClC(Cl)Cl): 485 nm
Structure (SMILES): N#Cc1nc(N(Cc2ccc(Br)cc2)Cc2ccc(Br)cc2)c(C#N)nc1N(Cc1ccc(Br)cc1)Cc1ccc(Br)cc1

absorption maximum (in CC#N): 328 nm
Structure (SMILES): C=Cc1cc2ccc(OC(=O)c3ccccc3)cc2oc1=O

absorption maximum (in CO): 278 nm
Structure (SMILES): Cc1ccc2c(c1)nnn2-c1c(C#N)c2c(N)ncnc2n1[C@H]1C[C@H](O)[C@@H](CO)O1

absorption maximum (in CCCCCCCCCCCCCC): 382 nm
Structure (SMILES): Cc1ccsc1-c1ccc(-c2ccc(-c3sccc3C)s2)s1

absorption maximum (in ClC(Cl)Cl): 380 nm
Structure (SMILES): O=C1[C@@H]2[C@H](C(=O)N1c1ccc3cc4ccccc4cc3c1)[C@@H]1C=C[C@H]2C1
